The structures appear in SMILES notation.

The subject of assay [1] is harmaline-induced essential tremor model. The assay is described as follows: Anti-tremor effect in harmaline-induced essential tremor model. The assay is classed as in vivo, mouse. The settings on record: Examples 1, 13: 25 or 50 mg/kg, Example 14: 3.125-25 mg/kg oral; β-propranolol 10 mg/kg i.p. How it is done: As an animal model of essential tremor, an animal administrated with harmaline is broadly used in its evaluation test. […] The effect of the present compounds for harmaline-acute-administration-induced tremor was studied. To male Crl: CD1 mice (6-7 weeks old) (CHARLES RIVER LABORATORIES JAPAN, INC.), harmaline (30 mg/kg) was intraperitoneally administered to induce tremor. The present compound (Example 1 (25 mg/kg or 50 mg/kg), Example 13 (25 mg/kg or 50 mg/kg), or Example 14 (3.125 mg/kg, 6.25 mg/kg, 12.5 mg/kg, or 25 mg/kg)) was orally administered to the mouse one hour before the administration of harmaline. And, saline or β-propranolol (10 mg/kg) which is a positive control compound was intraperitoneally administered to the mouse 20 minutes before the administration of harmaline. 35 minutes before the administration of harmaline, the mouse was put into a measurement cage (an acrylic cylinder set in a horizontal direction, φ 65 mm, length 145 mm), one cage to one mouse, said measurement cage was in a soundproof box of a startle response instrument (O'hara & Co., Ltd., Tokyo). The trembling that the mouse gave were recorded over time as tremor data. The animal was put into cage, and the data were recorded for 20 minutes just before (PRE) and just after (POST) the administration of harmaline. The time-series signal data were analyzed about frequency with an analysis software, VitalTracer and BIMUTAS II-A (both, Kissei Comtech Co., Ltd., Matsumoto-shi). At 12-15 Hz or 12-18 Hz as a frequency which increases with tremor, the spectrum amounts were extracted, and the tremor intensity T of each subject was calculated according to the following formula. T=POST/PRE

The subject of assay [2] is unilateral lesion model of nigrostriatal dopamine neuron induced with 6-OHDA. The assay is described as follows: Extending duration of levodopa-induced rotational behavior in 6-OHDA unilateral lesion model. The assay is classed as in vivo, rat. Particulars: Examples 10 or 30 mg/kg oral; rasagiline 0.6 mg/kg; with levodopa 5 mg/kg i.p.
Assay [3] relates to levodopa-induced dyskinesia in 6-OHDA unilateral lesion model. The assay is described as follows: Effect for inhibiting levodopa-induced dyskinesia. The assay is classed as in vivo, rat. The settings on record: Examples 30 or 100 mg/kg, rasagiline 0.2 or 0.6 mg/kg, daily for two weeks. The text has this:
A unilateral lesion model of nigrostriatal dopamine neuron induced with 6-hydroxydopamine (6-OHDA) is broadly used for evaluating the drug efficacy for treating Parkinson's disease, as mentioned in Test 2. In addition, it is known that dyskinesia is developed when the present model receives repetitive administration of levodopa, which is similar to the phenomenon that patients of Parkinson's disease who have received long-term administration of levodopa develop dyskinesia. With the present model, the effect of the present compound on the dyskinesia induced by repetitive administration of levodopa was evaluated. As shown in Test 2, a unilateral lesion model of nigrostriatal dopamine neuron was prepared. One day before starting the repetitive administration of levodopa, levodopa methyl ester hydrochloride (5.86 mg/kg) containing benserazide hydrochloride ([…]) (whose ratio was 4:1 in terms of free form) was intraperitoneally administered to the model, and the rotational behavior of the model was observed from 20 minutes to 140 minutes after the administration. The models were classified considering three factors of the total rotation number (20-140 minutes after the administration), the later term of the rotation (120-140 minutes after the administration), and the rotational duration, so that the dispersion of each group could be equal. Two days after the classification, the repetitive administration of levodopa methyl ester hydrochloride (6 mg/kg) and benserazide hydrochloride (12 mg/kg) once a day for two weeks was started. […] The evaluation of dyskinesia was done after one week and two weeks of the repetitive administration. […]

A further assay deals with mouse elevated plus maze. Briefly: Anxiolytic-like action, mouse elevated plus maze. The assay is classed as in vivo. The settings on record: Example 13 at 10 mg/kg or more oral; diazepam 3 mg/kg oral. Here is the method:
In Parkinson's disease, psychiatric symptom (e.g. depression, anxiety) is known as one of its non-motor symptoms. The anxiolytic-like action of the present invention was evaluated with mouse elevated plus maze. The present test is broadly used as a method for evaluating the anxiolytic-like action of agents.
In the present test, male Crl: CD1 (ICR) mice (CHARLES RIVER LABORATORIES JAPAN, INC.) were used. One hour before the test was started, the solvent, the compound of Example 13 (3 mg/kg, 10 mg/kg, 30 mg/kg, or 100 mg/kg), or diazepam (3 mg/kg) which is a positive control was orally administered to the mouse. The mouse was put into a center platform in which the illuminance was adjusted to 80-100 Lux level. The head of the mouse was set toward the closed arm, and then the test was started. The mouse was allowed to explore freely for 5 minutes. When ⅓ of the mouse's body entered the arm, the behavior was counted as arm entry. And, the time spent in the open arm was also measured with a stopwatch. The ratio of the count of the open arm entry per the count of the all arm entry, and the ratio of the time spent in the open arm per the total exploration time (5 minutes) were calculated. […] Thus, the ratio of the count of the open arm entry per the count of the all arm entry, and the ratio of the time spent in the open arm per the total exploration time tend to be small values. When these ratios in the drug administration group are higher than those of the solvent administration group, it can be judged that the drug has anxiolytic-like action.

Regarding `CC(c1noc2ccccc12)S(N)(=O)=O` (centres unmarked) [Example 1, 1-(Benzo[d]isoxazol-3-yl)ethane-1-sulfonamide], the harmaline-induced tremor intensity result in assay [1] is on record as “inhibited harmaline-induced tremor”. The “rotational number in the late phase (100-120 minutes)” value in assay [2] is recorded as “significantly increased the rotational number in the late phase”. Moreover, in assay [3], the “dyskinesia induced by repetitive administration of levodopa (AIMS score)” value is “the onset of dyskinesia induced by repetitive administration of levodopa was inhibited”.

Regarding `C[C@H](c1noc2ccccc12)S(N)(=O)=O` [Example 13, (1R)-1-(1,2-benzoxazol-3-yl)ethane-1-sulfonamide], in the assay with mouse elevated plus maze, the “count of the open arm entry” value was “increase significantly” and the “time spent in the open arm” value was “increase significantly”. In addition, the harmaline-induced tremor intensity entry in assay [1] is “inhibited harmaline-induced tremor”. In assay [2], the “rotational number in the late phase (100-120 minutes)” value is reported as “significantly increased the rotational number in the late phase”. In addition, the “dyskinesia induced by repetitive administration of levodopa (AIMS score)” value in assay [3] was “the onset of dyskinesia induced by repetitive administration of levodopa was inhibited”.
